Earlier results on one molecule are cited in patent US8986736B2, “Method for delivering particulate drugs to tissues” (Baxter International Inc., priority 2003, dated 2015).

The series deals with HIV-infected macrophages.

The structures appear in SMILES notation.

In the case of `CC(C)(C)NC(=O)[C@@H]1C[C@@H]2CCCC[C@@H]2CN1C[C@@H](O)[C@H](Cc1ccccc1)NC(=O)[C@H](CC(N)=O)NC(=O)c1ccc2ccccc2n1` [saquinavir], under “100 nM, in solution”, the “activity in chronically HIV-infected macrophages” value is “completely inactive”. The antiviral activity entry (aqueous solution, HIV-infected macrophages) is recorded as “little antiviral activity”.
